Columns and labels:
Assay type in all cases: cell-based, human
[1] = tested on: Hes-1 expression (Notch pathway) in cell line AFCA007 (AF-I); assay: Hes-1 expression by real-time PCR after notch pathway inhibition; details: range of concentrations, 3 to 5 days
Experimental: (§1) Cells were treated for three days, at the concentrations indicated. Changes in viability, corresponding to cytotoxicity were detected using an MTS assay, where a decrease in cell viability corresponds to a decrease in A490 nm.
(§2) Cells from the cell line AFCA007 (AF-I) at passage 8 were treated with a range of concentrations of the notch pathway inhibitor L-685,458 (Sigma, MO) for 3 to 5 days. The cytotoxcity of L-685,458 was determined by measuring cell viability by a MTS assay (Promega, WI). Real-time PCR analysis was performed to analyze Hes-1 expression after the treatment. […] No effect on cell viability, as determined by the MTS assay, was observed following L-685,458 treatment of up to 10 μM for 5 days (FIG. 17, panel b).

cell line AFCA007 (AF-I) = assay: Cytotoxicity by MTS cell viability assay; details: up to 10 μM for 5 days
Experimental: as §1, §2

[2] = tested on: cell line AFCA007 Clone A (AF-I); assay: Differentiation of cells into multiple endocrine lineages (collagen type I/matrigel transwell culture with growth factors); details: 14 days, DMEM + 5% FBS
Experimental: Cells from the cell line AFCA007 Clone A (AF-I) at passage 8 were embedded in collagen type I (Becton Dickinson, CA) with 1% growth-factor reduced matrigel matrix (Becton Dickinson), and seeded into 6-well transwell insert at 5×10^5 cells per well. The bottom well was seeded with human aortic endothelial cells passage 6 (Cambrex. MD). Cells were cultured with DMEM medium supplemented with 5% FBS and growth factors, which includes Cyclopamine, bFGF, EGF, BMP4-7, Activin A, Exendin 4, FGF4, all-trans retinoic acid and γ-secretase inhibitors for 14 days. Cultures were fed every other day. […] Treatment of cells with BMPs at high concentration, 50 ng/ml, also up-regualted the GATA4 expression.

[3] = tested on: cell line AFCA004 (E morphology); assay: Treatment with PANC-1 conditioned medium in combination with growth factors, real-time PCR; details: PANC-1 conditioned medium plus growth factor; for somatostatin expression: after 14 days treatment
Experimental: Amniotic fluid-derived cells were obtained from a single donor and cultured for 12 days in conditioned media that was obtained from cultures of PANC-1 cells. The media was supplemented with the growth factors indicated. The levels of expression of HNF-3 beta and somatostatin were determined by real-time PCR. Human pancreas total RNA was included as a calibrator.
Cells from the cell line AFCA004 (E morphology) at passage 6 were seeded at 5×10^5 cells per well of 6-well culture plates and treated with conditioned medium from confluent PANC-1 cells (ATCC, VA) in combination with different growth factors. Basic FGF, EGF and combination of bFGF and EGF enhanced the expression of HNF-3 beta ˜100 fold over untreated cells. Basic FGF, EGF and BMPs also stimulated somatostatin expression after 14 days treatment (FIG. 16, panels a&b).

CC(C)C[C@H](NC(=O)[C@H](Cc1ccccc1)C[C@@H](O)[C@H](Cc1ccccc1)NC(=O)OC(C)(C)C)C(=O)N[C@@H](Cc1ccccc1)C(N)=O [L-685,458]
Hes-1 expression [1]: dose-dependent inhibitory effect
cell viability (MTS assay) (cell line AFCA007 (AF-I)): No effect
expression of HNF-3 beta [2]: up-regulated

CC1=C(/C=C/C(C)=C/C=C/C(C)=C/C(=O)O)C(C)(C)CCC1 [all-trans retinoic acid, reference compound]
alpha-fetoprotein (AFP) expression [2]: up-regulation

Basic FGF: growth factor combined with PANC-1 conditioned medium
expression of HNF-3 beta over untreated cells [3]: ~100 fold
somatostatin expression [3]: stimulated

EGF: epidermal growth factor combined with PANC-1 conditioned medium (NSDSECPLSHDGYCLHDGVCMYIEALDKYACNCVVGYIGERCQYRDLKWWELR; Epidermal growth factor; UniProt P01133 971-1023, looked up)
expression of HNF-3 beta over untreated cells [3]: ~100 fold
somatostatin expression [3]: stimulated
